Active and inactive are the calls of the source. The calls are words filed in the database; no cut-off is given here.
How the values were obtained:
[1] = target: Albumin (Homo sapiens, UniProt P02768); test: Binding affinity to human serum albumin at 100 umol/l by equilibrium dialysis technique; assay type: ADME; settings: isolated protein, 100 µM
[2] = octanol/water
Description: Lipophilic-hydrophilic balance, Rm of the compound by TLC analysis

[3] = buffer
Description: Solubility of the compound in water

[4] = physchem
Description: Dissociation constant, pKa of the compound by spectrophotometric analysis

[5] = tested on: Escherichia coli; test: microbe, parasite or virus in culture; settings: 24 h, read-out: ID50
Description: Antimicrobial activity against Escherichia coli assessed as growth inhibition after 24 hrs by turbidimetric analysis

[6] = physchem; settings: aqueous solution
Description: Hydrolytic dissociation constant, pKa of the compound in aqueous solution at 50 degC

[7] = tested on: Enterococcus faecalis; test: Induction of Streptococcus faecalis growth; assay type: functional, organism-based
[8] = tested on: Enterococcus faecalis; test: Growth inhibition of Streptococcus faecalis; assay type: functional, organism-based
[9] = tested on: Escherichia coli; test: Inhibition of Escherichia coli dihydropteroic acid synthesizing system-mediated folate production at 50 to 250 umol/l
[10] = tested on: Escherichia coli; test: Reversal of sulfapyridine-mediated growth inhibition of Escherichia coli at 4 to 400 umol/l; assay type: functional, organism-based
[11] = tested on: Escherichia coli; test: Reversal of sulfabenzene-mediated growth inhibition of Escherichia coli at 4 to 400 umol/l; assay type: functional, organism-based

Chain of Albumin (P02768 whole entry): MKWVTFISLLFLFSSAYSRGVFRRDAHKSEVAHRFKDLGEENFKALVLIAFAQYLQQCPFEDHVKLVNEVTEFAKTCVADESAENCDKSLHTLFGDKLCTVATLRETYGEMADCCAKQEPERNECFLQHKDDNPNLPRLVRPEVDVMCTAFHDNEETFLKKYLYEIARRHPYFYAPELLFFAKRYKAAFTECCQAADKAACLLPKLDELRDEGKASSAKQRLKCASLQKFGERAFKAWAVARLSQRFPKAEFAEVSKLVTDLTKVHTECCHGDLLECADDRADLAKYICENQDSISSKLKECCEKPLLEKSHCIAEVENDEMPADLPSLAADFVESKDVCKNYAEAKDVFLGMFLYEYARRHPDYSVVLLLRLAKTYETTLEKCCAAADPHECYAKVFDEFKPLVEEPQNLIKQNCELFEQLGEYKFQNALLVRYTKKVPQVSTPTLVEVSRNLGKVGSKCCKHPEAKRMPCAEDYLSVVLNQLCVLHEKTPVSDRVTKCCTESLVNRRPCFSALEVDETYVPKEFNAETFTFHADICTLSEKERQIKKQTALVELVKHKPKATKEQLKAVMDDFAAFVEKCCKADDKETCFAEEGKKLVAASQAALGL

| SMILES | log(PB) [1] | Rm [2] | pKa [4] | IC50 [5] [µM] | other results |
| --- | --- | --- | --- | --- | --- |
| CCCCCOc1cc(N)ccc1C(=O)O | 1.76 | 2.85 | 5.1 | 135 | solubility [3]: soluble |
| Nc1ccc(C(=O)O)c([N+](=O)[O-])c1 | 1.33 | 2.3 | 2.78 | 100 | pKa [6]: 3.22 |
| CCCCCCCCOc1cc(N)ccc1C(=O)O | – | 4.25 | 5.4 | 25 | solubility [3]: soluble |
| Cc1cc(C(=O)O)ccc1N | 1.37 | 1.6 | 4.62 | 120 | – |
| Nc1ccc(C(=O)O)cc1I | 1.92 | 2.95 | 4.34 | 110 | – |
| Nc1nc(=O)c2nc(CNc3ccc(C(=O)N[C@@H](CCC(=O)O)C(=O)O)cc3)cnc2[nH]1 | – | – | – | – | Activity [7]: Active |
| Nc1nc(=O)c2nc(CNc3ccc(C(=O)O)c(Cl)c3)cnc2[nH]1 | – | – | – | – | Activity [7]: inactive; growth inhibition (GI) [8]: inactive |
| CCOc1cc(N)ccc1C(=O)O | 1.56 | 1.31 | 5.09 | 130 | solubility [3]: soluble |
| CCCCCCOc1cc(C(=O)O)ccc1N | 1.97 | – | 4.47 | 85 | inhibition [9]: inactive; solubility [3]: soluble |
| Nc1ccc(C(=O)O)cc1Br | 1.89 | 2.85 | 4.24 | 110 | pKa [6]: 4.31 |
| CCCOc1cc(N)ccc1C(=O)O | 1.69 | 1.75 | 4.96 | 140 | solubility [3]: soluble |
| Nc1ccc(C(=O)O)c(O)c1 [AMINOSALICYLIC ACID] | 1.57 | 1.92 | 3.52 | 25 | inhibition [9]: inactive; pKa [6]: 3.62 |
| Nc1ccc(C(=O)O)cc1F | 1.52 | 1.66 | 4.35 | 13 | inhibition [9]: Active |
| COc1cc(N)ccc1C(=O)O | 1.26 | – | 5.04 | 100 | pKa [6]: 5.1 |
| C=CCOc1cc(N)ccc1C(=O)O | 1.63 | 1.68 | 5.01 | 125 | solubility [3]: soluble |
| Nc1ccc(C(=O)O)cc1C(=O)c1ccccc1 | – | – | 4.34 | 105 | solubility [3]: soluble |
| Nc1ccc(C(=O)O)c(F)c1 | 1.27 | 1.62 | 4.13 | 125 | – |
| N#CSc1cc(C(=O)O)ccc1N | 1.68 | – | 4.52 | 190 | – |
| CCCCOc1cc(N)ccc1C(=O)O | 1.69 | 2.4 | 5.25 | 125 | solubility [3]: soluble |

| SMILES | log(PB) [1] | Rm [2] | pKa [4] | IC50 [5] [µM] | other results |
| --- | --- | --- | --- | --- | --- |
| Nc1nc(O)c2c(n1)NCC(CNc1ccc(C(=O)O)c(Cl)c1)=N2 | – | – | – | – | Activity [10]: Active; Activity [11]: Active |
| Nc1ccc(C(=O)O)cc1Cl | 1.81 | 2.38 | 4.35 | 100 | – |
| Nc1nc2c(c(=O)[nH]1)N=C(CNc1ccc(C(=O)O)cc1)CN2 | – | – | – | – | Activity [10]: Active; Activity [11]: Active |
| Nc1ccc(C(=O)O)c(C(=O)O)c1 | 0.45 | – | – | 120 | – |
| Nc1ccc(C(=O)O)c(Cl)c1 | 1.36 | 2.17 | 3.88 | 45 | inhibition [9]: inactive; pKa [6]: 3.93 |
| Nc1ccc(C(=O)O)cc1C(=O)O | 1.82 | – | – | 120 | – |
| Cl.Nc1ccc(C(=O)O)c(I)c1 | 1.79 | 2.4 | 3.81 | 30 | – |
| Cl.Nc1ccc(C(=O)O)cc1N | 0.95 | – | 4.84 | 40 | – |
| CCCCCCCOc1cc(N)ccc1C(=O)O | – | 3.77 | 5.3 | 90 | solubility [3]: soluble |
| Nc1nc(O)c2c(n1)NCC(CNc1ccc(C(=O)O)cc1F)=N2 | – | – | – | – | Activity [10]: Active; Activity [11]: Active |
| Nc1ccc(C(=O)O)cc1[N+](=O)[O-] | 1.89 | 3.11 | 3.96 | 130 | solubility [3]: soluble |
| Nc1nc(=O)c2nc(CNc3ccc(C(=O)O)c(F)c3)cnc2[nH]1 | – | – | – | – | Activity [7]: Active |
| Cc1cc(N)ccc1C(=O)O | 1.16 | 1.73 | 4.83 | 30 | – |
| Cl.Nc1ccc(C(=O)O)c(N)c1 | 1 | – | 5.81 | 3.5 | – |
| Cl.Nc1ccc(C(=O)O)c(Br)c1 | 1.67 | 2.38 | 3.69 | 8 | pKa [6]: 3.85 |
| Nc1nc(O)c2nc(CNc3ccc(C(=O)O)cc3)cnc2n1 | – | – | – | – | Activity [7]: Active |
| CC(C)CCOc1cc(N)ccc1C(=O)O | – | 2.7 | 5.17 | 125 | solubility [3]: soluble |
| Nc1ccc(C(=O)O)cc1O | 1.27 | – | 4.59 | 85 | – |
| Nc1ccc(C(=O)O)cc1 [AMINOBENZOIC ACID] | – | 1.21 | – | – | pKa [6]: 4.67 |
